In US8097752B2, “Antiprotozoal ring-substituted phospholipids” (priority 2002, dated 2012):
Structures can show the parent of a compound that is named as a salt.

Key:
[1] = tested on: promastigote forms of Leishmania infantum; assay: In vitro antileishmanial activity in promastigote cultures (MTT), L. infantum; format: cell-based, Leishmania infantum MHOM/TN/80/IPT1/LEM 235; settings: promastigotes, 72 h incubation, mean ± SEM, n = 3-4 (each run in duplicate), read-out: IC50 (μM) L. infantum MON 235
Procedure: (§1) Determination of in Vitro Antileishmanial Activity in Promastigote Cultures.
(§2) The effect of the phospholipids according to the present invention against the promastigote forms of Leishmania donovani and Leishmania infantum was evaluated using an MTT (3-(4,5-dimethylthiazol-2yl)-2,5-diphenyltetrazolium bromide)-based enzymatic method as a marker of cell viability and was compared with that of the ether phospholipid hexadecylphosphocholine (Miltefosine). Thus, promastigotes of Leishmania infantum MHOM/TN/80/IPT1/LEM 235 and Leishmania donovani MHOM/IN/80/DD8/LEM 703, were grown in RPMI 1640 supplemented with 10% FCS, L. glutamine and antibiotics, at 26° C. All new compounds were dissolved in DMSO to a final concentration of 9.625 mM and linear 3-fold dilutions were done in the culture medium. 25 μL of promastigote culture at 5×10^5 cells/mL were cultured in a 96-well flat-bottom plate (Costar 3696), and incubated with 25 μL of different drug concentrations at 26° C. After 72 h, 10 μL of 5 mg/mL MTT in PBS (SIGMA M2128) were added and incubation was continued for 3 h. The reaction was stopped by the addition of 50 μL of 50% isopropanol, 10% SDS under gentle shacking for 30 min. Absorbance was measured at 550 nm with reference at 620 nm in a TRITURUS microplate reader.

[2] = tested on: promastigote forms of Leishmania donovani; assay: In vitro antileishmanial activity in promastigote cultures (MTT), L. donovani; format: cell-based, Leishmania donovani MHOM/IN/80/DD8/LEM 703; settings: promastigotes, 72 h incubation, mean ± SEM, n = 3-4 (each run in duplicate), read-out: IC50 (μM) L. donovani MON 703
Procedure: as §1, §2

THP1 cells = assay: Assessment of cytotoxicity in THP1 monocyte cells (SYBR-14/PI staining, flow cytometry); settings: THP1 monocytes infected with L. donovani and L. infantum; 72 hours; concentrations as low as 50 μM
Procedure: Thus, we proceeded to assess the cytotoxicity of four inventive compounds as well as miltefosine in the human monocytic cell line THP1.
Assessment of Cytotoxicity in THP1 Monocyte Cells.
As a quantitative measurement of the cell damage after incubation with different concentrations of drugs dual staining with SYBR-14 and PI (Molecular Probes, The Netherlands) was used followed by flow cytometry.
THP1 cell cultures were incubated at 1×10^6 cells/ml with different concentrations of the compounds ranging from 50 to 1.56 μM. After an incubation period of 72 hours approximately 4×10^6 cells were suspended in labeling buffer (10 mM HEPES, 150 mM NaCl, 10% BSA, pH 7.4) and 10 μg/ml PI and 0.1 mg/ml SYBR-14 were added. The cultures were incubated at 37° C. for 30 minutes before analysis by flow cytometry.
Cell samples were analyzed on an Epics Elite model flow cytometer (Coulter, Miami, Fla.). The green fluorescence of SYBR-14 and the red fluorescence of PI were excited at 488 nm. At least 10,000 cells were analyzed per sample and each staining experiment was repeated twice. Data analysis was performed on fluorescence intensities that excluded cell autofluorescence and cell debris.
THP1 monocytes infected with the appropriate Leishmania species were used for the evaluation of the leishmanicidal activity of the compounds against the intracellular amastigote stages of the parasite.

CCCCCCCCCCCC=C1CCC(OCCOP(=O)([O-])OCC[N+](C)(C)C)CC1 (stereo not drawn) [Example 1, 1-{2-{[(4-Dodecylidenecyclohexyloxy)ethyloxy]hydroxyphosphinyloxy}ethyl}-N,N,N-trimethylammonium inner salt]
IC50 [1]: 3.25 ± 0.65 µM
IC50 [2]: 7.08 ± 1.2 µM

CCCCCCCCCCCC=C1CCC(OCCOP(=O)([O-])OCC[N+]2(C)CCCCC2)CC1 (stereo not drawn) [Example 2, 1-{2-{[(4-Dodecylidenecyclohexyloxy)ethyloxy]hydroxyphosphinyloxy}ethyl}-1-methylpiperidinium inner salt]
IC50 [1]: 23.1 ± 3.6 µM
IC50 [2]: 22 ± 3.25 µM

CCCCCCCCCCCC=C1CCC(OCCOP(=O)([O-])OCC[N+]2(C)CCOCC2)CC1 (stereo not drawn) [Example 3, 1-{2-{[(4-Dodecylidenecyclohexyloxy)ethyloxy]hydroxyphosphinyloxy}ethyl}-1-methylmorpholinium inner salt]
IC50 [1]: 16.5 ± 1.8 µM
IC50 [2]: 50.7 ± 3.6 µM

CCCCCCCCCCCCCC=C1CCC(OCCOP(=O)([O-])OCC[N+](C)(C)C)CC1 (stereo not drawn) [Example 4, 1-{2-{[(4-Tetradecylidenecyclohexyloxy)ethyloxy]hydroxyphosphinyloxy}ethyl}-N,N,N-trimethylammonium inner salt]
IC50 [1]: 5.25 ± 0.45 µM
IC50 [2]: 3.91 ± 0.21 µM

CCCCCCCCCCCCCC=C1CCC(OCCOP(=O)([O-])OCC[N+]2(C)CCCCC2)CC1 (stereo not drawn) [Example 5, 1-{2-{[(4-Tetradecylidenecyclohexyloxy)ethyloxy]hydroxyphosphinyloxy}ethyl}-1-methylpiperidinium inner salt]
IC50 [1]: 11.4 ± 2.4 µM
IC50 [2]: 29.7 ± 3.6 µM

CCCCCCCCCCCCCC=C1CCC(OCCOP(=O)([O-])OCC[N+]2(C)CCOCC2)CC1 (stereo not drawn) [Example 6, 1-{2-{[(4-Tetradecylidenecyclohexyloxy)ethyloxy]hydroxyphosphinyloxy}ethyl}-1-methylmorpholinium inner salt]
IC50 [1]: 15.5 ± 1.8 µM
IC50 [2]: 38.6 ± 3.2 µM

CCCCCCCCCCCCCCCC=C1CCC(OCCOP(=O)([O-])OCC[N+](C)(C)C)CC1 (stereo not drawn) [Example 7, 1-{2-{[(4-Hexadecylidenecyclohexyloxy)ethyloxy]hydroxyphosphinyloxy}ethyl}-N,N,N-trimethylammonium inner salt]
IC50 [1]: 21.2 ± 2.6 µM
IC50 [2]: 45.1 ± 7.2 µM

CCCCCCCCCCCCCCCC=C1CCC(OCCOP(=O)([O-])OCC[N+]2(C)CCCCC2)CC1 (stereo not drawn) [Example 8, 1-{2-{[(4-Hexadecylidenecyclohexyloxy)ethyloxy]hydroxyphosphinyloxy}ethyl}-1-methylpiperidinium inner salt]
IC50 [1]: 6.5 ± 1.7 µM
IC50 [2]: 22 ± 1.99 µM

CCCCCCCCCCCCCCCC=C1CCC(OCCOP(=O)([O-])OCC[N+]2(C)CCOCC2)CC1 (stereo not drawn) [Example 9, 1-{2-{[(4-Hexadecylidenecyclohexyloxy)ethyloxy]hydroxyphosphinyloxy}ethyl}-1-methylmorpholinium inner salt]
IC50 [1]: 3.7 ± 0.71 µM
IC50 [2]: 16.2 ± 2.29 µM

C[N+](C)(C)CCOP(=O)([O-])OCCCCC=C1CCCCC1 [Example 10, 1-{2-[(5-Cyclohexylidenepentyloxy)hydroxyphosphinyloxy]ethyl}-N,N,N-trimethylammonium inner salt]
IC50 [1]: > 100 µM
IC50 [2]: > 100 µM

C[N+]1(CCOP(=O)([O-])OCCCCC=C2CCCCC2)CCCCC1 [Example 11, 1-{2-[(5-Cyclohexylidenepentyloxy)hydroxyphosphinyloxy]ethyl}-1-methylpiperidinium inner salt]
IC50 [1]: > 100 µM
IC50 [2]: > 100 µM

C[N+]1(CCOP(=O)([O-])OCCCCC=C2CCCCC2)CCOCC1 [Example 12, 1-{2-[(5-Cyclohexylidenepentyloxy)hydroxyphosphinyloxy]ethyl}-1-methylmorpholinium inner salt]
IC50 [1]: > 100 µM
IC50 [2]: > 100 µM

C[N+](C)(C)CCOP(=O)([O-])OCCCCCCCCCCC=C1CCCCC1 [Example 13, 1-{2-[(11-Cyclohexylideneundecyloxy)hydroxyphosphinyloxy]ethyl}-N,N,N-trimethylammonium inner salt]
IC50 [1]: 5.2 ± 1.5 µM
IC50 [2]: 2.4 ± 0.6 µM
cytotoxic effect on THP1 cells (percentage of live THP1 cells, FIG. 1) (THP1 cells): not observed

C[N+]1(CCOP(=O)([O-])OCCCCCCCCCCC=C2CCCCC2)CCCCC1 [Example 14, 1-{2-[(11-Cyclohexylideneundecyloxy)hydroxyphosphinyloxy]ethyl}-1-methylpiperidinium inner salt]
IC50 [1]: 47.6 ± 7.33 µM
IC50 [2]: 8.7 ± 1 µM

C[N+]1(CCOP(=O)([O-])OCCCCCCCCCCC=C2CCCCC2)CCOCC1 [Example 15, 1-{2-[(11-Cyclohexylideneundecyloxy)hydroxyphosphinyloxy]ethyl}-1-methylmorpholinium inner salt]
IC50 [1]: 22.8 ± 1.7 µM
IC50 [2]: 8.25 ± 0.25 µM

C[N+](C)(C)CCOP(=O)([O-])OCCCCC=C1C2CC3CC(C2)CC1C3 [Example 16, 1-{2-[(5-Adamantylidenepentyloxy)hydroxyphosphinyloxy]ethyl}-N,N,N-trimethylammonium inner salt]
IC50 [1]: > 100 µM
IC50 [2]: 4.99 ± 1.5 µM

C[N+]1(CCOP(=O)([O-])OCCCCC=C2C3CC4CC(C3)CC2C4)CCCCC1 [Example 17, 1-{2-[(5-Adamantylidenepentyloxy)hydroxyphosphinyloxy]ethyl}-1-methylpiperidinium inner salt]
IC50 [1]: > 100 µM
IC50 [2]: > 100 µM

C[N+]1(CCOP(=O)([O-])OCCCCC=C2C3CC4CC(C3)CC2C4)CCOCC1 [Example 18, 1-{2-[(5-Adamantylidenepentyloxy)hydroxyphosphinyloxy]ethyl}-1-methylmorpholinium inner salt]
IC50 [1]: > 100 µM
IC50 [2]: 46.9 ± 8.7 µM

C[N+](C)(C)CCOP(=O)([O-])OCCCCCCCCCCC=C1C2CC3CC(C2)CC1C3 [Example 19, 1-{2-[(11-Adamantylideneundecyloxy)hydroxyphosphinyloxy]ethyl}-N,N,N-trimethylammonium inner salt]
IC50 [1]: 6.75 ± 2.4 µM
IC50 [2]: 3.16 ± 0.63 µM
cytotoxic effect on THP1 cells (percentage of live THP1 cells, FIG. 1) (THP1 cells): not observed

C[N+]1(CCOP(=O)([O-])OCCCCCCCCCCC=C2C3CC4CC(C3)CC2C4)CCCCC1 [Example 20, 1-{2-[(11-Adamantylideneundecyloxy)hydroxyphosphinyloxy]ethyl}-1-methylpiperidinium inner salt]
IC50 [1]: 22.6 ± 3.4 µM
IC50 [2]: 5.41 ± 1.14 µM

C[N+]1(CCOP(=O)([O-])OCCCCCCCCCCC=C2C3CC4CC(C3)CC2C4)CCOCC1 [Example 21, 1-{2-[(11-Adamantylideneundecyloxy)hydroxyphosphinyloxy]ethyl}-1-methylmorpholinium inner salt]
IC50 [1]: 6.64 ± 1.2 µM
IC50 [2]: 5.09 ± 1.86 µM

CCCCCCCCCCCCC1CCC(OCCOP(=O)([O-])OCC[N+](C)(C)C)CC1 (stereo not drawn) [Example 26, 1-{2-{[(4-Dodecylcyclohexyloxy)ethyloxy]hydroxyphosphinyloxy}ethyl}-N,N,N-trimethylammonium inner salt]
IC50 [1]: 5.65 ± 1.93 µM
IC50 [2]: 9.49 ± 1.4 µM

CCCCCCCCCCCCCCC1CCC(OCCOP(=O)([O-])OCC[N+](C)(C)C)CC1 (stereo not drawn) [Example 27, 1-{2-{[(4-Tetradecylcyclohexyloxy)ethyloxy]hydroxyphosphinyloxy}ethyl}-N,N,N-trimethylammonium inner salt]
IC50 [1]: 23.3 ± 3.5 µM
IC50 [2]: 23.7 ± 4.4 µM

C[N+](C)(C)CCOP(=O)([O-])OCCCCCCCCCCCC1CCCCC1 [Example 28, 1-{2-[(11-Cyclohexylundecyloxy)hydroxyphosphinyloxy]ethyl}-N,N,N-trimethylammonium inner salt]
IC50 [1]: 8.4 ± 0.8 µM
IC50 [2]: 10.3 ± 1.3 µM

C[N+](C)(C)CCOP(=O)([O-])OCCCCCC12CC3CC(CC(C3)C1)C2 [Example 29, 1-{2-[(5-Adamantylpentyloxy)hydroxyphosphinyloxy]ethyl}-N,N,N-trimethylammonium inner salt]
IC50 [1]: > 100 µM
IC50 [2]: 4.02 ± 2.3 µM

C[N+](C)(C)CCOP(=O)([O-])OCCCCCCCCCCCC12CC3CC(CC(C3)C1)C2 [Example 30, 1-{2-[(11-Adamantylundecyloxy)hydroxyphosphinyloxy]ethyl}-N,N,N-trimethylammonium inner salt]
IC50 [1]: 5.97 ± 1.06 µM
IC50 [2]: 2.88 ± 0.72 µM
